In patent publication US20120232070A1, “Use of Indole Derivatives as Nurr-1 Activators for the Application Thereof as a Medicament for the Treatment of Parkinson's Disease” (Laboratoires Fournier SA, priority 2009, published 2012):

Tests used:
[1] = biological target: hNurr1_RXRγFL (NURR1/RXRγ heterodimer) (Homo sapiens, UniProt P43354+P48443); test: Transactivation assay in Cos-7 cells, NURR-1-Gal4 / RXRγ, luciferase reporter; type: cell-based; settings: for Emax: COS-7, read-out: hNurr1_RXRγFL Eff (%), efficacy in % relative to the reference XCT0135908 at 2·10^−5 M (=100%); for EC50: Cos-7 cells, overnight incubation
hNurr1_RXRγFL (NURR1/RXRγ heterodimer), sequence (P43354 328-598): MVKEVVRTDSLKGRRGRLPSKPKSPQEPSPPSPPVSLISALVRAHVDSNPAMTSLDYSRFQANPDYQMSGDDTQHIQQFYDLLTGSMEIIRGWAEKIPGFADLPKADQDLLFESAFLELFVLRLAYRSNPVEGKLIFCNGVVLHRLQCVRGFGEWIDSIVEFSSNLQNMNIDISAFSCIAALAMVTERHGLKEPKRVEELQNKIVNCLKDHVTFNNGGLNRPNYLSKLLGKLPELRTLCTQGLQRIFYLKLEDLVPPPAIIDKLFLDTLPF
hNurr1_RXRγFL (NURR1/RXRγ heterodimer), sequence (P48443 whole entry, the tested form may be a part): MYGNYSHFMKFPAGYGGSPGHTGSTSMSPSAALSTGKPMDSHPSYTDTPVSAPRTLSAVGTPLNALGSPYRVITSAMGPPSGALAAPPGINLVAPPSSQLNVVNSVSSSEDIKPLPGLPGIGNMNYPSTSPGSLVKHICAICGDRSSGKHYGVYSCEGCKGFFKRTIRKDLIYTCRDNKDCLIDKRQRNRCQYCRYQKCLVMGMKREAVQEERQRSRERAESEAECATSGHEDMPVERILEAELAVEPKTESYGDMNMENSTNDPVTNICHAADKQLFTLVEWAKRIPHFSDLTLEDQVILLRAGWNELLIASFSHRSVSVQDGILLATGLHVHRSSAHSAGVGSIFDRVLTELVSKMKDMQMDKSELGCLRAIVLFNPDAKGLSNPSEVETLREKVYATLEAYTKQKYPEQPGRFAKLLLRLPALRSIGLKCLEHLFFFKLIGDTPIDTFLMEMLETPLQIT
Protocol: (§1) First, the capacity of the compounds according to the invention for acting as an activator of the heterodimers formed by the NURR-1 nuclear receptor and the RXR nuclear receptors was measured by an in vitro assay.
(§2) A transactivation assay was used as a primary screening assay. Cos-7 cells were co-transfected with a plasmid expressing a chimera of the human receptor NURR-1-Gal4, a plasmid expressing the human receptor RXR (RXRα or RXRγ receptor) and a reporter plasmid 5Gal4pGL3-TK-Luc. The transfections were performed by means of a chemical agent (Jet PEI).
(§3) The transfected cells were distributed in 384-well plates and left resting for 24 hours.
(§4) After 24 hours, the culture medium was changed. The products according to the invention were added (final concentration between 10^−4 and 3·10^−10 M) to the culture medium. After overnight incubation, luciferase expression was measured after addition of “SteadyGlo” according to the manufacturer's instructions (Promega).
(§5) 4-[[6-Methyl-2-phenyl-5-(2-prop enyl)-4-pyrimidinyl]amino]-benzoic acid (called XCT0135908, which was described in the article by Wallen-Mackenzie et al. published in Genes & Development 17, pages 3036-3047) at 2·10^−5 M (RXR agonist) was used as reference.
(§6) The levels of induction (designated by “efficiency”) were calculated relative to the baseline activity of each heterodimer. The results were expressed as a percentage of the level of induction relative to the level of induction obtained with the reference (the level of induction of the reference is arbitrarily taken to be 100%).

[2] = biological target: hNurr1_RXRαFL (NURR1/RXRα heterodimer) (Homo sapiens, UniProt P19793+P43354); test: Transactivation assay in Cos-7 cells, NURR-1-Gal4 / RXRα, luciferase reporter; type: cell-based; settings: for Emax: COS-7, read-out: hNurr1_RXRαFL Eff (%), efficacy in % relative to the reference XCT0135908 at 2·10^−5 M (=100%); for EC50: Cos-7 cells, overnight incubation
hNurr1_RXRαFL (NURR1/RXRα heterodimer), sequence (P19793 whole entry, the tested form may be a part): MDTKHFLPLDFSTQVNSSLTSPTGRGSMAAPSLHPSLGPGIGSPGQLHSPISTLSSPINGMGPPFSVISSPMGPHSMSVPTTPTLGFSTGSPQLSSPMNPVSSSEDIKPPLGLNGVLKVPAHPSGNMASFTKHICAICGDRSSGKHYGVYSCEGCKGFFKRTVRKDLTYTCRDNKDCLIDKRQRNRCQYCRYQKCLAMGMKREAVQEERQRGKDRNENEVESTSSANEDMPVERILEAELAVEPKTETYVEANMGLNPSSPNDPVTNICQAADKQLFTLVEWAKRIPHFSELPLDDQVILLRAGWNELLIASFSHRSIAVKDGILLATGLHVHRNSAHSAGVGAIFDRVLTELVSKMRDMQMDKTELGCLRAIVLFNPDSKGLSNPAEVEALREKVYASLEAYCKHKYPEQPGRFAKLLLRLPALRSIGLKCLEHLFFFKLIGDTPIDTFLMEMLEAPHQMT
hNurr1_RXRαFL (NURR1/RXRα heterodimer), sequence (P43354 328-598): as the sequence (P43354 328-598) above
Protocol: as §1, §2, §3, §4, §5, §6

[3] = efficacy in % relative to the reference XCT0135908 at 2·10^−5 M (=100%)

Row | Compound | Emax [1] [%] | EC50 [1] [nM] | Emax [2] [%] | EC50 [2] [nM] | hNurr1_RXRγFL Eff (%) [1, 3] [%] | hNurr1_RXRαFL Eff (%) [2, 3] [%]
1 | CC(C)(C)c1cccc(S(=O)(=O)n2c(Cc3ccc(C(=O)O)cc3)cc3c(Cl)c(Cl)ccc32)c1 [Example 119, 4-[[1-[[3-(1,1-dimethylethyl)phenyl]sulfonyl]-4-(chloro)-5-(chloro)-1H-indol-2-yl]methyl]benzoic acid] | 82 | 266 | 71 | 65 |  | 
2 | O=C(O)c1cncc(Cc2cc3cc(Cl)ccc3n2S(=O)(=O)c2ccc3c(c2)OCCO3)c1 [Example 213, 3-[[1-[(2,3-dihydro-benzo[1,4]dioxin-6-yl)sulfonyl]-5-chloro-1H-indol-2-yl]methyl]-5-pyridine carboxylic acid] | 31 | > 10000 | 45 | 3000 |  | 
3 | COc1cccc(S(=O)(=O)n2c(Cc3ccc(C(=O)O)cc3)cc3cc(C(F)(F)F)ccc32)c1 [Example 13, 4-[[1-[(3-methoxyphenyl)sulfonyl]-5-(trifluoromethyl)-1H-indol-2-yl]methyl]benzoic acid] | 36 | 528 | 69 | 207 |  | 
4 | Cc1cccc(S(=O)(=O)n2c(Cc3ccc(C(=O)O)cc3)cc3cc(Cl)ccc32)c1 [Example 161, 4-[[5-chloro-1-[(3-methylphenyl)sulfonyl]-1H-indol-2-yl]methyl]benzoic acid] | 40 | 584 | 59 | 460 |  | 
5 | Cc1cc(Cc2cc3cc(C(F)(F)F)ccc3n2S(=O)(=O)c2cccc(C(C)(C)C)c2)c(F)cc1C(=O)O [Example 196, 4-[[1-[[3-(1,1-dimethylethyl)phenyl]sulfonyl]-5-trifluoromethyl-1H-indol-2-yl]methyl]-5-fluoro-2-methyl-benzoic acid] | 91 | 479 | 90 | 240 |  | 
6 | O=C(O)c1ccc(Cc2cc3cc(C(F)(F)F)ccc3n2S(=O)(=O)c2cccc(OC(F)(F)F)c2)cc1 [Example 145, 4-[[1-[3-trifluoromethoxy-phenylsulfonyl]-5-(trifluoromethyl)-1H-indol-2-yl]methyl]benzoic acid] | 21 | 638 | 44 | 359 |  | 
7 | COC(=O)c1ccc(Cc2cc3cc(C(C)(C)C)ccc3n2S(=O)(=O)c2cccc(C(C)(C)C)c2)cc1 [Example 108, 4-[[1-[[3-(1,1-dimethylethyl)phenyl]sulfonyl]-5-(tert-butyl)-1H-indol-2-yl]methyl]benzoic acid, methyl ester] | 77 | 646 | 110 | 157 |  | 
8 | O=C(O)c1ccc(Cc2cc3cc(C(F)(F)F)ccc3n2S(=O)(=O)c2cccc(-c3ccc(Cl)cc3)c2)cc1 [Example 146, 4-[[1-[4′-chloro-biphenyl-3-sulfonyl]-5-(trifluoromethyl)-1H-indol-2-yl]methyl]benzoic acid] | 24 | 1180 | 43 | 619 |  | 
9 | O=C(O)c1ccc(Cc2cc3cc(Cl)ccc3n2S(=O)(=O)c2cccc(Cl)c2)cc1 [Example 164, 4-[[1-[3-chloro-phenylsulfonyl]-5-(chloro)-1H-indol-2-yl]methyl]benzoic acid] | 47 | 851 | 53 | 753 |  | 
10 | COC(=O)c1ccc(Cc2cc3cc(C(F)(F)F)ccc3n2S(=O)(=O)c2ccc(C(C)C)cc2)cc1F [Example 1, 2-fluoro-4-[[1-[[4-(1-methylethyl)phenyl]sulfonyl]-5-(trifluoromethyl)-1H-indol-2-yl]methyl]benzoic acid, methyl ester] | 60 | 718 | 65 | 412 |  | 
11 | CC(C)c1cccc(S(=O)(=O)n2c(Cc3ccc(C(=O)O)cc3)cc3cc(C(F)(F)F)ccc32)c1 [Example 114, 4-[[1-[[3-(1-methylethyl)phenyl]sulfonyl]-5-(trifluoromethyl)-1H-indol-2-yl]methyl]benzoic acid] |  | 145 |  | 63 | 76 | 109
12 | O=C(O)c1ccc(F)c(Cc2cc3cc(C(F)(F)F)ccc3n2S(=O)(=O)c2ccc3c(c2)OCCO3)c1 [Example 214, 3-[[1-[(2,3-dihydro-benzo[1,4]dioxin-6-yl)sulfonyl]-5-trifluoromethyl-1H-indol-2-yl]methyl]-4-fluorobenzoic acid] | 55 | 804 | 75 | 681 |  | 
13 | COc1cc(Cc2cc3cc(Cl)ccc3n2S(=O)(=O)c2ccc(C(C)C)cc2)ccc1C(=O)O [Example 98, 4-[[5-chloro-1-[[4-(1-methylethyl)phenyl]sulfonyl]-1H-indol-2-yl]methyl]-2-methoxybenzoic acid] | 8 | > 10000 | 64 | 2120 |  | 
14 | CC(C)(C)c1cccc(S(=O)(=O)n2c(Cc3cncc(C(=O)O)c3)cc3cc(C(F)(F)F)ccc32)c1 [Example 204, 3-[[1-[[3-(1,1-dimethylethyl)-phenyl]sulfonyl]-5-trifluoromethyl-1H-indol-2-yl]methyl]-5-pyridine carboxylic acid] | 93 | 195 | 102 | 107 |  | 
15 | CC(C)c1ccc(S(=O)(=O)n2c(Cc3ccc(C(=O)O)s3)cc3cc(C(F)(F)F)ccc32)cc1 [Example 71, 5-[[1-[[4-(1-methylethyl)-phenyl]sulfonyl]-5-trifluoromethyl-1H-indol-2-yl]methyl]-thiophene-2-carboxylic acid] | 82 | 95 | 61 | 47 |  | 
16 | Cn1ccc(-c2cccc(S(=O)(=O)n3c(Cc4ccc(C(=O)O)cc4)cc4cc(C(F)(F)F)ccc43)c2)n1 [Example 18, 4-[[1-[[3-(1-methyl-1H-pyrazol-3-yl)phenyl]sulfonyl]-5-(trifluoromethyl)-1H-indol-2-yl]methyl]benzoic acid] | 34 | 668 | 60 | 407 |  | 
17 | O=C(O)c1ccc(Cc2cc3cc(C(F)(F)F)ccc3n2S(=O)(=O)c2ccc(Oc3ccccc3)nc2)cc1 [Example 130, 4-[[1-[(6-phenoxy-3-pyridinyl)sulfonyl]-5-(trifluoromethyl)-1H-indol-2-yl]methyl]benzoic acid] | 22 | 1700 | 30 | 347 |  | 
18 | O=C(O)c1ccc(Cc2cc3cc(Cl)ccc3n2S(=O)(=O)c2ccc3c(c2)OCO3)cc1 [Example 174, 4-[[1-(1.3-benzodioxol-5-ylsulfonyl)-5-chloro-1H-indol-2-yl]methyl]benzoic acid] | 37 | 813 | 47 | 593 |  | 
19 | O=C(O)c1ccc(Cc2cc3cc(C(F)(F)F)ccc3n2S(=O)(=O)c2ccsc2)cc1 [Example 16, 4-[[1-(3-thienylsulfonyl)-5-(trifluoromethyl)-1H-indol-2-yl]methyl]benzoic acid] | 45 | 628 | 66 | 617 |  | 
20 | CC(C)(C)c1cccc(S(=O)(=O)n2c(Cc3ccc(C(=O)O)c(F)c3)cc3cc(C(F)(F)F)ccc32)c1 [Example 10, 2-fluoro-4-[[1-[[3-(1,1-dimethylethyl)phenyl]sulfonyl]-5-(trifluoromethyl)-1H-indol-2-yl]methyl]benzoic acid] | 56 | 943 | 63 | 406 |  | 
21 | COc1ccc(S(=O)(=O)n2c(Cc3ccc(C(=O)O)cc3)cc3cc(C(F)(F)F)ccc32)cn1 [Example 120, 4-[[1-[(6-methoxy-3-pyridinyl)sulfonyl]-5-(trifluoromethyl)-1H-indol-2-yl]methyl]benzoic acid] | 49 | 661 | 68 | 202 |  | 
22 | CC(C)(C)c1cccc(S(=O)(=O)n2c(Cc3ccc(F)c(C(=O)O)c3)cc3cc(C(F)(F)F)ccc32)c1 [Example 210, 3-[[1-[[3-(1,1-dimethylethyl)-phenyl]sulfonyl]-5-trifluoromethyl-1H-indol-2-yl]methyl]-6-fluorobenzoic acid] | 68 | 81 | 70 | 69 |  | 
23 | CN1CCOc2ccc(S(=O)(=O)n3c(Cc4ccc(C(=O)O)s4)cc4cc(C(F)(F)F)ccc43)cc21 [Example 73, 5-[[1-[[4-methyl-3,4-dihydro-2H-benzo[1,4]oxazin-6-yl]-sulfonyl]-5-trifluoromethyl-1H-indol-2-yl]methyl]-thiophene-2-carboxylic acid] | 89 | 66 | 94 | 37 |  | 
